Consider 16 compounds from patent publication US7022725B2, “Isoxazole derivatives” (Takeda Pharmaceutical Company Limited, priority 2000, dated 2006).

The term melting point denotes the temperature of the solid-liquid transition.

`O=C(O)CCc1conc1-c1ccc(F)c(Cl)c1` [Example 114, 3-[3-(3-chloro-4-fluorophenyl)-4-isoxazolyl]propionic acid] returned a melting point of 140 to 141 °C.

As to `O=C(O)CCc1conc1-c1ccc(Cl)c(F)c1` [Example 117, 3-[3-(4-chloro-3-fluorophenyl)-4-isoxazolyl]propionic acid], the melting point was in the range of 148 to 149 °C.

`COC(=O)CCc1cnoc1-c1cc(Cl)c(Cl)s1` [Example 124, methyl 3-[5-(4,5-dichloro-2-thienyl)-4-isoxazolyl]propionate] returned a melting point of 49 to 50 °C.

Consider `O=C(O)CCc1conc1-c1ccc(F)c(Br)c1` [Example 125, 3-[3-(3-bromo-4-fluorophenyl)-4-isoxazolyl]propionic acid], for which the melting point fell in the range of 151 to 152 °C.

The compound `O=C(O)CCc1cnoc1-c1ccc(F)c(Br)c1` [Example 128, 3-[5-(3-bromo-4-fluorophenyl)-4-isoxazolyl]propionic acid] yielded a melting point of 136 to 137 °C.

In the case of `O=C(O)CCc1cnoc1-c1ccc(-c2ccccc2)cc1` [Example 131, 3-[5-(4-phenylphenyl)-4-isoxazolyl]propionic acid], the melting point fell in the range of 94 to 95 °C.

As to `Cc1noc(-c2ccccc2)c1/C=C/C(=O)O` [Example 136, (E)-3-(3-methyl-5-phenyl-4-isoxazolyl)propenoic acid], the melting point was in the range of 173 to 174 °C.

`O=C(O)CCc1conc1-c1ccc(C(F)(F)F)cc1` [Example 140, 3-[3-(4-trifluoromethylphenyl)-4-isoxazolyl]propionic acid] returned a melting point of 173 to 174 °C.

In the case of `Cc1onc(-c2ccc(Cl)cc2)c1CCC(=O)O` [Example 141, 3-[3-(4-chlorophenyl)-5-methyl-4-isoxazolyl]propionic acid], the melting point was 187 to 188 °C.

`CCc1onc(-c2ccc(Cl)cc2)c1CCC(=O)O` [Example 142, 3-[3-(4-chlorophenyl)-5-ethyl-4-isoxazolyl]propionic acid] had a melting point of 164 to 165 °C.

As to `O=C(O)CCc1c(-c2ccccc2)noc1O` [Example 143, 3-[5-hydroxy-3-phenyl-4-isoxazolyl]propionic acid], the melting point lay in the range of 183 to 184 °C.

For the compound `Cc1onc(-c2ccc(C(F)(F)F)cc2)c1CCC(=O)O` [Example 144, 3-[5-methyl-3-(4-trifluoromethylphenyl)-4-isoxazolyl]propionic acid], the melting point was in the range of 138 to 139 °C.

`Cc1onc(-c2cccc(C(F)(F)F)c2)c1CCC(=O)O` [Example 145, 3-[5-methyl-3-(3-trifluoromethylphenyl)-4-isoxazolyl]propionic acid] gave a melting point of 63 to 64 °C.

For `O=C(O)CCc1c(-c2ccccc2)noc1-c1ccccc1` [Example 146, 3-[3,5-diphenyl-4-isoxazolyl]propionic acid], the melting point was in the range of 152 to 153 °C.

Compound `Cc1onc(-c2ccccc2Cl)c1CCC(=O)O` [Example 147, 3-[3-(2-chlorophenyl)-5-methyl-4-isoxazolyl]propionic acid] returned a melting point of 79 to 81 °C.

Regarding `O=C(CCc1cnoc1-c1ccccc1)Nc1ccc(CP(=O)(O)O)cc1` [Example 413 (byproduct), 3-(5-Phenyl-4-isoxazolyl)-N-[4-(phosphonomethyl)phenyl]propionamide], the melting point lay in the range of 162 to 164 °C.
